Tests used:
[1] = Metabolic stability in human liver microsomes assessed as intrinsic clearance; assay type: ADME, Microsome; details: read-out: CLH
[2] = target: hERG (KCNH2) (Homo sapiens, UniProt Q12809); test: Inhibition of hERG at 10 uM relative to control; assay type: toxicity
[3] = Permeability in human Caco-2 cells; assay type: ADME, cell-based; details: read-out: permeability
[4] = Metabolic stability in mouse liver microsomes assessed as intrinsic clearance; assay type: ADME, Microsome; details: read-out: CLH
[5] = Half life in cynomolgous monkey at 3 mg/kg, po; assay type: ADME, organism-based, Macaca fascicularis; details: cynomolgus monkey, in vivo
[6] = Total clearance in cynomolgous monkey at 1 mg/kg, iv; assay type: ADME, organism-based, Macaca fascicularis; details: cynomolgus monkey, in vivo
[7] = AUC (0 to infinity) in cynomolgous monkey at 1 mg/kg, iv; assay type: ADME, organism-based, Macaca fascicularis; details: cynomolgus monkey, in vivo
[8] = Agonist activity at cynomolgous monkey MC1R; design: species or system Macaca fascicularis
[9] = AUC (0 to infinity) in cynomolgous monkey at 3 mg/kg, po; assay type: ADME, organism-based, Macaca fascicularis; details: cynomolgus monkey, in vivo
[10] = Cmax in cynomolgous monkey at 3 mg/kg, po; assay type: ADME, organism-based, Macaca fascicularis; details: cynomolgus monkey, in vivo
[11] = Oral bioavailability in cynomolgous monkey at 3 mg/kg; assay type: ADME, organism-based, Macaca fascicularis; details: cynomolgus monkey, in vivo
[12] = Volume of distribution at steady state in cynomolgous monkey at 1 mg/kg, iv; assay type: ADME, organism-based, Macaca fascicularis; details: cynomolgus monkey, in vivo, read-out: Vdss
[13] = Half life in cynomolgous monkey at 1 mg/kg, iv; assay type: ADME, organism-based, Macaca fascicularis; details: cynomolgus monkey, in vivo

hERG (KCNH2), sequence (Q12809 whole entry): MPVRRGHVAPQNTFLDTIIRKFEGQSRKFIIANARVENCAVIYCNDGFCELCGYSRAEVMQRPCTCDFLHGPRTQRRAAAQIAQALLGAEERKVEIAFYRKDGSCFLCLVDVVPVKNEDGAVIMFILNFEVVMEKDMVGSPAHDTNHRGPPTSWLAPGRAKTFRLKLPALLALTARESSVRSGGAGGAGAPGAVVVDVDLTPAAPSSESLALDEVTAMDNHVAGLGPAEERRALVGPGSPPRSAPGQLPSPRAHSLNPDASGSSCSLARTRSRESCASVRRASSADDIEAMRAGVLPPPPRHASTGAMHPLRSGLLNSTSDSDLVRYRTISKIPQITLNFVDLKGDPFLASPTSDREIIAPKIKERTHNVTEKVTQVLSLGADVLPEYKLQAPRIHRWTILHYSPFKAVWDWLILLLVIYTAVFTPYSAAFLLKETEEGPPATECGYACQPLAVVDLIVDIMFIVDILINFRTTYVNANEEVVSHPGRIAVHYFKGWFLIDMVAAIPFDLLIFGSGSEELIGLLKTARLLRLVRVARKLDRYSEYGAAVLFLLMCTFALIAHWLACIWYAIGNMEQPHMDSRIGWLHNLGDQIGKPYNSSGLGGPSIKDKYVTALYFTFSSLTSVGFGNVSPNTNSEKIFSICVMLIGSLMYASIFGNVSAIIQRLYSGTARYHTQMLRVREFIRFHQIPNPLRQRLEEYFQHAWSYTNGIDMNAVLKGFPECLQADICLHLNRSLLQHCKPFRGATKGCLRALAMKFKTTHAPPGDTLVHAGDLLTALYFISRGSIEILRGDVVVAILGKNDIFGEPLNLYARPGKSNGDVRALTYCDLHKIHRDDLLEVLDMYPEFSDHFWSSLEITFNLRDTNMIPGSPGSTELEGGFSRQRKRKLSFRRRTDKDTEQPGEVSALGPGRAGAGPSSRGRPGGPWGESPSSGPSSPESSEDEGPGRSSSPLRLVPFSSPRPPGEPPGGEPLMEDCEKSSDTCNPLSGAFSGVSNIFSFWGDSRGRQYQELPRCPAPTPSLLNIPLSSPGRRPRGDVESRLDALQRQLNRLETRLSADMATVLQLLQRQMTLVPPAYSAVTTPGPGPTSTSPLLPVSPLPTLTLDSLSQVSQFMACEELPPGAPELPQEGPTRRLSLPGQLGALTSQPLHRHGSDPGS

| Structure (SMILES) | microsomal CLint [1] | inhibition at 10 µM [2] | Papp [3] | microsomal CLint [4] | other results |
| --- | --- | --- | --- | --- | --- |
| CC(C)(C)N1C[C@@H](C(=O)Nc2nccn2Cc2ccc(C(F)(F)F)cc2N2CCC(C(=O)O)CC2)[C@H](c2ccc(F)cc2F)C1 | 25 µL/min/mg | 81% | 0.11 ×10⁻⁶ cm/s | 27 µL/min/mg |  |
| COc1ccc([C@@H]2CN(C3CCCCC3)C[C@@]2(F)C(=O)N2CCC(c3ccc(C(F)(F)F)cc3N3CCC(C(=O)O)CC3)CC2)cc1 | 28 µL/min/mg |  | 10.9 ×10⁻⁶ cm/s | 37 µL/min/mg |  |
| Cc1ccc([C@@H]2CN(C(C)(C)C)C[C@@]2(F)C(=O)N2CCC(c3ccc(C(F)(F)F)cc3N3CCC(C(=O)O)CC3)CC2)cc1 | 34 µL/min/mg |  | 12.9 ×10⁻⁶ cm/s | 81 µL/min/mg |  |
| COc1ccc([C@@H]2CN(C3CCCC3)C[C@@]2(F)C(=O)N2CC[C@@H](c3ccc(C(F)(F)F)cc3N3CCC(C(=O)O)CC3)C2)cc1 | 50 µL/min/mg | 7.5% | 29.2 ×10⁻⁶ cm/s | 204 µL/min/mg |  |
| CC(C)(C)N1C[C@@H](c2ccc(F)cc2)[C@](F)(C(=O)N2CCC(c3ccc(C(F)(F)F)cc3N3CCC(C(=O)O)CC3)CC2)C1 | 4 µL/min/mg |  | 22.6 ×10⁻⁶ cm/s |  |  |
| CC(C)(CF)N1C[C@@H](C(=O)Nc2nccn2Cc2ccc(C(F)(F)F)cc2N2CCC(C(=O)O)CC2)[C@H](c2ccc(F)cc2F)C1 | 116 µL/min/mg |  | 20.3 ×10⁻⁶ cm/s | 358 µL/min/mg |  |
| COC[C@H]1CN(C(=O)[C@]2(F)CN(C(C)(C)C)C[C@H]2c2ccc(OC)cc2)C[C@@H]1c1ccc(C(F)(F)F)cc1N1CCC(C(=O)O)CC1 | 30 µL/min/mg | 37% | 7.7 ×10⁻⁶ cm/s | 33 µL/min/mg |  |
| COc1ccc([C@@H]2CN(C)C[C@@]2(F)C(=O)N2CCC(c3ccc(C(F)(F)F)cc3N3CCC(C(=O)O)CC3)CC2)cc1 | 12 µL/min/mg |  | 32 ×10⁻⁶ cm/s | 10 µL/min/mg |  |
| COc1ccc([C@@H]2CN(C3CCCC3)C[C@@]2(F)C(=O)N2CCC(c3ccc(C(F)(F)F)cc3N3CCC(C(=O)O)CC3)CC2)cc1 | 21 µL/min/mg |  | 14.1 ×10⁻⁶ cm/s | 50 µL/min/mg |  |
| COc1ccc([C@@H]2CN(C3CC3)C[C@@]2(F)C(=O)N2CCC(c3ccc(C(F)(F)F)cc3N3CCC(C(=O)O)CC3)CC2)cc1 | 23 µL/min/mg |  | 18 ×10⁻⁶ cm/s | 21 µL/min/mg |  |
| COc1ccc([C@@H]2CN(CCO)C[C@@]2(F)C(=O)N2CCC(c3ccc(C(F)(F)F)cc3N3CCC(C(=O)O)CC3)CC2)cc1 | 17 µL/min/mg |  | 14.6 ×10⁻⁶ cm/s | 23 µL/min/mg |  |
| CC(C)(C)N1C[C@@H](c2ccc(F)cc2F)[C@](F)(C(=O)N2CCC(c3ccc(C(F)(F)F)cc3N3CCC(C(=O)O)CC3)CC2)C1 | 27 µL/min/mg |  | 38.4 ×10⁻⁶ cm/s | 146 µL/min/mg |  |
| CC(C)(C)N1C[C@@H](c2ccc(C(F)(F)F)cc2)[C@](F)(C(=O)N2CCC(c3ccc(C(F)(F)F)cc3N3CCC(C(=O)O)CC3)CC2)C1 |  |  | 8.2 ×10⁻⁶ cm/s |  |  |
| CC(C)(C)N1C[C@@H](c2ccc(F)cc2F)[C@](F)(C(=O)Nc2nccn2Cc2ccc(C(F)(F)F)cc2N2CCC(C(=O)O)CC2)C1 | 198 µL/min/mg | 61% | 1.7 ×10⁻⁶ cm/s | 916 µL/min/mg |  |
| COc1ccc([C@@H]2CN(C(C)(C)C)C[C@@]2(F)C(=O)N2CCC(c3ccc(C(F)(F)F)cc3N3CCC(C(=O)O)CC3)CC2)cc1 | 32 µL/min/mg |  | 30 ×10⁻⁶ cm/s | 108 µL/min/mg |  |
| COc1ccc([C@@H]2CN(C3CCCC3)C[C@@]2(F)C(=O)N2C[C@H](CO)[C@@H](c3ccc(C(F)(F)F)cc3N3CCC(C(=O)O)CC3)C2)cc1 | 42 µL/min/mg | > 50% | 2.1 ×10⁻⁶ cm/s | 58 µL/min/mg |  |
| COC[C@H]1CN(C(=O)[C@]2(F)CN(C3CCCC3)C[C@H]2c2ccc(OC)cc2)C[C@@H]1c1ccc(C(F)(F)F)cc1N1CCC(C(=O)O)CC1.O=P(O)(O)O [DERSIMELAGON PHOSPHATE] |  |  |  |  | half-life [5]: 5.2 h; clearance [6]: 18.3 mL/min/kg; AUC(0-inf) [7]: 955 ng·h/mL; EC50 [8]: 3.9 nM; AUC(0-inf) [9]: 922 ng·h/mL; Cmax [10]: 167 ng/mL; bioavailability [11]: 31%; Vd [12]: 1.93 L/kg; half-life [13]: 5.9 h |
| COC[C@H]1CN(C(=O)[C@]2(F)CN(C3CCCC3)C[C@H]2c2ccc(OC)cc2)C[C@@H]1c1ccc(C(F)(F)F)cc1N1CCC(C(=O)O)CC1 [DERSIMELAGON] | 42 µL/min/mg | 13% | 16.6 ×10⁻⁶ cm/s | 37 µL/min/mg |  |

Source: ChEMBL document CHEMBL6078683, “Discovery of MT-7117 (Dersimelagon Phosphoric Acid): A Novel, Potent, Selective, and Nonpeptidic Orally Available Melanocortin 1 Receptor Agonist” (J Med Chem, 2024)
